Data from patent US20090186838A1, “Amphotericin Derivatives” (Eidgenössische Technische Hochschule Zürich, priority 2006, published 2009).
Converted amounts (≈) assume the structure as drawn. Where two headings read alike, the source gives them in different places.

How the values were obtained:
[1] = tested on: Saccharomyces cerevisiae wild type BY4741; assay: MIC determination in Saccharomyces cerevisiae wild type BY4741; format: cell-based; settings: read-out: MIC
Procedure: (§1) In Vitro Antifungal Activity. MIC values for various strains were determined in accordance with the standard protocol from the National Committee of Clinical Laboratory Standards but using YEPD liquid medium instead of RPMI-1640 medium (National Committee of Clinical Laboratory Standards (Reference Method for Broth Dilution Antifungal Susceptibility Testing of Yeast, M27-A2, Approved Standard-Second Edition, Volume 22, Number 15, 1995). AmB was used as a reference. The strains were cultivated overnight in 5 mL YEPD liquid medium at 30 to 37° C. (30° C. for the strain BY4741; 37° C. for the strain DSY1764) with constant shaking. The saturated cultures were diluted to an ODB600 of 0.1 (3×10P^7 cells/mL). Using 24 wells plate, each well was prepared by adding 1% (12 μL) of DMSO solution of the tested polyene macrolide with 1% (12 μL) yeast cells solution and completed with YEPD (1.176 mL). The plates were sealed with Parafilm and then incubated for 18 to 36 hours at 30 to 37° C. (18 hours at 30° C. for the strain BY4741; 36 hours at 37° C. for the strain DSY1764). The optical density was read at 600 nm using 1.5 mL cuvettes. The MIC value was defined as the drug concentration needed to inhibit growth, less than 5% compared to a drug-free culture.
MIC values of various polyene macrolides of the invention in Saccharomyces cerevisiae wild type BY4741, a derivative of S288C, (with AmB as a reference) were determined as described hereinabove.
Based on the remarkable performance observed with the Diamine-AmB conjugate similar modifications of the aminosugar moiety were made on other polyene macrolides, such as for example Nystatin (1b) and Pimaricin (1c). The antifungal activity of these nystatin and pimaricin conjugates bearing two aminopropyl side chains was measured using Saccharomyces cerevisiae wild type BY4741.

[2] = tested on: DSY-296 C. albican CI; assay: MIC determination in Candida strain DSY-296; format: cell-based, Candida albicans
Procedure: as §1
(§2) MIC values of the polyene macrolides 3, 9 and 10 (Diamine-AmB and its ester and diamide derivative, respectively) in various Candida strains including an AmB-resistant strain C. albicans (DSY1764, with the genotype erg3AΔ::hisG/erg3BΔ::hisG erg11Δ::hisG/erg11Δ::hisG-URA3-hisG) were determined.

[3] = tested on: DSY-562 C. glabrata CI; assay: MIC determination in Candida strain DSY-562; format: cell-based
Procedure: as §1, §2

[4] = tested on: DSY-565 C. glabrata CI; assay: MIC determination in Candida strain DSY-565; format: cell-based
Procedure: as §1, §2

[5] = tested on: CAF2-1 C. albican wt; assay: MIC determination in Candida strain CAF2-1; format: cell-based, Candida albicans
Procedure: as §1, §2

[6] = tested on: DSY-1751 C. albican mutant erg3; assay: MIC determination in Candida strain DSY-1751; format: cell-based, Candida albicans
Procedure: as §1, §2

[7] = tested on: DSY-1764 C. albican mutant erg3/11 (AmB-resistant strain); assay: MIC determination in AmB-resistant Candida strain DSY-1764; format: cell-based, Candida albicans
Procedure: as §1, §2

[8] = tested on: DSY-294 C. albican CI; assay: MIC determination in Candida strain DSY-294; format: cell-based, Candida albicans
Procedure: as §1, §2

[9] = tested on: DSY-654 C. albican mutant cdr1/2; assay: MIC determination in Candida strain DSY-654; format: cell-based, Candida albicans; settings: DSY-654 C. albican mutant cdr1/2
Procedure: as §1, §2

[10] = tested on: human erythrocytes; assay: Hemolytic assay (EH50); format: cell-based; settings: concentration that led to 50% hemolysis of human erythrocytes; one hour at 37° C.
Procedure: Hemolytic Assay. The hemotoxicity of the polyene macrolide derivatives of the invention was determined by measuring the toxicity towards human erythrocytes (EH50 value) using an established assay (Kinsky, S. C. et al., Biochem. Biophys. Res. Comm. 1962, 9, 503). Human blood, anticoagulated with citrate or EDTA, was centrifuged (2000×g) at 4° C. for 10 minutes. The pellets were washed three times with PBS buffer (pH 7.2 with 2 g/L glucose) and then diluted to a concentration of 4% (4×10^8 cells/mL). All experiments were done in triplo and the total volume for the hemolysis tubes was 1.4 ml. The solutions were prepared by adding 1% (14 μL) of DMSO solution of the tested compound with […] of PBS buffer and completed with 750 μL of 4% erythrocytes. After one hour incubation at 37° C., the samples were centrifuged (1500×g) at 4° C. for 5 min and the absorbance of the supernatant was measured at 560 nm. The concentration that led to 50% hemolysis (EH50) was intrapolated graphically. The value for the 100% hemolysis was obtained by the treatment with 100 μM of AmB.
The toxicity of AmB (1a) and the polyene macrolides 3, 9 and 10 towards human erythrocytes was examined using the above described hemolysis assay (Table 3).

[11] = Solubility assay; format: physicochemical; settings: DMSO stock added to PBS buffer solution pH 7.2; precipitation point by light scattering at 600 nm
Procedure: Solubility assay. The solubility assay was performed according to Lipinski, C. A. et al Advances Drug Delivery Reviews 2001, 46, 3-26. Typically, a compound of the invention was dissolved in DMSO at a concentration of 10 μg/μl. The so obtained solution was added in […] at 1 min intervals to 2.5 ml PBS buffer solution pH 7.2. These additions correspond to solubility increments of 5 μg/ml to a top value of 65 μg/ml. A total of 14 additions were made and each time increased UV absorbance from light scattering was measured at 600 nm. The precipitation point was calculated from a bilinear curve fit to the Absorbance (y axis) versus μl of DMSO (x axis) plot.
The solubility of the polyene macrolides of the invention in water was tested following the above described protocol. Clearly, all conjugates were more soluble in water then AmB.

[12] = Saccharomyces cerevisiae wild type BY4741, YEPD liquid medium, 18 hours at 30° C.

| Compound | MIC [1, 12] | MIC ([2]; Candida albicans) | MIC ([3]; Nakaseomyces glabratus) | MIC ([4]; Nakaseomyces glabratus) | MIC ([5]; Candida albicans) | MIC ([6]; Candida albicans) | MIC ([7]; Candida albicans, 36 h) | MIC ([1]; Table 3, strain not given, values as in Table 1 (S. cerevisiae BY4741)) | MIC [8] | MIC ([2]; DSY-296 C. albican CI) | MIC [3] | MIC ([4]; DSY-565 C. glabrata CI) | MIC [5] | MIC [9] | MIC ([6]; DSY-1751 C. albican mutant erg3) | MIC ([7]; DSY-1764 C. albican mutant erg3/11, AmB-resistant, 36 hours at 37° C.) | EH50 [10] | Solubility in water [11] |
| --- | --- | --- | --- | --- | --- | --- | --- | --- | --- | --- | --- | --- | --- | --- | --- | --- | --- | --- |
| C[C@@H]1[C@H](O)[C@@H](C)/C=C/C=C/C=C/C=C/C=C/C=C/C=C/[C@H](O[C@@H]2O[C@H](C)[C@@H](O)[C@H](N(CCCN)CCCN)[C@@H]2O)CC2O[C@](O)(C[C@@H](O)C[C@@H](O)[C@H](O)CC[C@@H](O)C[C@@H](O)CC(=O)O[C@H]1C)C[C@H](O)[C@H]2C(=O)NCCCN(C)C [compound 11, 16-(N′-(3-Dimethylaminopropyl)carboxamide)-N,N-di-(3-aminopropyl)-AmB] | 0.4 µM (≈ 0.449 µg/mL) | 0.3 µM (≈ 0.337 µg/mL) | 0.3 µM (≈ 0.337 µg/mL) | 0.3 µM (≈ 0.337 µg/mL) | 0.5 µM (≈ 0.561 µg/mL) | 1 µM (≈ 1.12 µg/mL) | 1 µM (≈ 1.12 µg/mL) |  |  |  |  |  |  |  |  |  |  |  |
| C[C@@H]1[C@H](O)[C@@H](C)/C=C/C=C/C=C/C=C/C=C/C=C/C=C/[C@H](O[C@@H]2O[C@H](C)[C@@H](O)[C@H](N)[C@@H]2O)C[C@@H]2O[C@](O)(C[C@@H](O)C[C@@H](O)[C@H](O)CC[C@@H](O)C[C@@H](O)CC(=O)O[C@H]1C)C[C@H](O)[C@H]2C(=O)O [AmB, Amphotericin B, reference compound] | 0.3 µM (≈ 0.277 µg/mL) |  |  |  |  |  |  | 0.30 µM (≈ 0.277 µg/mL) | 0.40 µM (≈ 0.37 µg/mL) | 0.40 µM (≈ 0.37 µg/mL) | 0.50 µM (≈ 0.462 µg/mL) | 0.50 µM (≈ 0.462 µg/mL) | 0.30 µM (≈ 0.277 µg/mL) | 0.50 µM (≈ 0.462 µg/mL) | 0.30 µM (≈ 0.277 µg/mL) | 50 µM (≈ 46.2 µg/mL) | 4.0 µM | 10 µg/mL (≈ 10.8 µM) |
